# According to patent US4617394A, “4-methyl-5-(unsubstituted and substituted phenoxy)-2,6-dimethoxy-8-(aminoalkylamino) quinolines” (priority 1985, dated 1986):
# Where “and” joins values, the source holds several entries; their conditions need not be identical. Identical values can stand only once. Entries after “also recorded” stand apart in the source; their conditions may differ. Like-named read-outs stand apart in the source and are kept apart here.
# Tests used:
# [1] = test system: Plasmodium berghei KBG 173; conditions: dose levels as low as; cited from earlier work
# [2] = test system: Plasmodium berghei KBG 173; assay: animal or person; type: in vivo, young ICR/HA Swiss mice; conditions: for ΔMST: 5 mice; for Toxic death (T): number of 5 mice, 320 mg/kg
# Source text: Blood Schizonticidal Test (Mouse), University of Miami, Rane (suppressive)
# This system is based on comparisons of responses to test compounds by Plasmodium berghei KBG 173 malaria in mice as expressed in mean survival times and the mean survival times of untreated controls. Thus, compounds noted as active produce increases in the survival times of the treated animals that are significant when compared with the survival times of untreated controls. Since an established disease is less sensitive to treatment than a disease in the early stages of development, treatment is withheld until the parasitemia is relatively high in order to insure a more reliable assay of activity and the selection of appropriate compounds for intensive preclinical studies.
# Utilizing young ICR/HA Swiss mice and a standard inoculum of Plasmodium berghei KBG 173, it is possible to produce a uniform disease fatal to 100% of untreated animals within 6 to 8 days with a mean survival time of 6.2 days. Test animals weigh from 18 to 22 grams but weight variations in any given experimental or control group are confined to 2 to 3 grams. All animals in any given test are approximately of the same age. Animals on test are housed in metal-topped plastic cages, given a standard laboratory diet and water ad libitum.
# Test animals receive an intraperitoneal injection of 0.5 ml of 1:100 dilution of heparinized heart's blood with a minimum of 90% parasitized cells (4×10^7 cells), drawn from donor mice infected one week earlier with Plasmodium berghei. The donor strain is maintained by weekly passages in separate groups of mice inoculated with a 0.5 ml of 1:500 dilution of heparinized heart's blood.
# Test compounds are administered after dissolution or suspension in peanut oil. A single dose is given subcutaneously 72 hours after the mice are infected with Plasmodium berghei. At this time a 10-15 percent parasitemia has developed; the disease is well established but has not produced sufficient debility to alter the response of the host to toxic effects of the drug on test. Since treatment is withheld for three days to permit the infection to become well established and death occurs in untreated controls within 6 to 8 days, it is believed that this system presents a candidate compound with the maximum challenge. In order to check factors such as changes in the infectivity of Plasmodium berghei or in the susceptibility of the host or to detect technical errors, a group of infected animals treated with pyrimethamine at dose levels producing definite increases in survival time is included as a positive control in every experiment.
# In each experiment test compounds are administered in graded doses. […] However, if an active drug is toxic for the host, its toxicity may become a limiting factor; continued increases in dose levels also increase the toxic effects and may result in the diminution of survival times. Deaths prior to the sixth day, when untreated controls begin to die, are regarded as non-parasitic and become the basis for the interpretation that the drug is toxic. Treated animals are kept under observation for 60 days. Survivors at the end of this period of time are considered as cured.
# An increase of 100% in mean survival time is considered the minimum effective response for a candidate compound. In calculating mean survival time, toxic deaths and 60 day survivors are not included.
# [3] = test system: Plasmodium cynomolgi (strain B); assay: Radical Curative Test in Rhesus Monkeys, SEATO Medical Research Laboratory; type: in vivo, Indian rhesus monkeys; conditions: for Radical Curative Activity, Cures (C): Table 1, Seato Rhesus; for Cures (C): Table 8, Seato
# Procedure: Radical Curative Test in Rhesus Monkeys, SEATO Medical Research Laboratory, Bangkok,
# This test is designed to evaluate the tissue schizonticidal (radical curative) activity of test compounds. Well-conditioned Indian rhesus monkeys of either sex weighing 2-4 Kg are utilized. Plasmodium cynomolgi (strain B) sporozoites are prepared by grinding heavily infected Anopheles dirus salivary glands in 1:1 monkey serum-saline vehicle.
# Monkeys are infected by I.V. injection of 10^6 freshly isolated P. cynomolgi sporozoites on day 0. A rapidly rising parasitemia develops after a 7 to 9 day prepatient period, and administration of the test drug is initiated when the rising parasite count exceeds 5000 per mm^3 (typically day 10-12). Test drugs are administered orally (by nasogastric intubation) once daily for 7 consecutive days in aqueous solution or, if insoluble, in suspension in 0.3% methylcellulose solution. Chloroquine diphosphate (3.1 mg of base/kg orally per day) is always administered concurrently with the test drug for 7 days to eliminate blood schizonts. Thus any tissue schizonticidal activity of the test drug will always be apparent even if it lacks blood schizonticidal activity.
# A vehicle control monkey and a positive drug control (primaquine) monkey are included in each group of inoculated monkeys.
# The effect of the test drug is determined by counting blood parasites. Parasite counts are made daily through day 20, and every two days thereafter. Initially a clearance of blood parasites is observed due to the blood schizonticidal action of chloroquine. […] If there is no relapse within 20 days of the initial clearance of parasitemia, the monkey is splenectomized and its parasitemia followed for an additional 30 days. If there is no relapse within this period, the experiment is terminated and the monkey is considered "cured". Alternately, in some experiments, negative parasitemia was followed for 100 days without prior splenectomy. It has been determined that the splenectomy and non-splenectomy methods yield virtually identical results.
# Primaquine diphosphate cures over 90% of monkeys in this test system when administered at a dose of 1.3 mg/kg of salt per day for 7 days ([…]) in combination with chloroquine.
# [4] = test system: Chesson strain of P. vivax; assay: Antimalarial activity against (trophozoite-induced) infections of the Chesson strain of P. vivax in the Aotus monkey; type: in vivo
# methemoglobin [5] = type: in vivo, Dog; conditions: for Peak % MHb / Slope of MHb Formation / Time of Peak MHb / MHb Disappearance Half-Time / MHb Production as AUC Corrected for Baseline: oral capsule, days 0-3, 3 mg/kg primaquine base per day or molar equivalent; for Peak % MHb / Slope of MHb Formation / Time of Peak MHb / MHb Production as AUC Corrected for Baseline: means differ significantly (p <.05); for MHb Disappearance Half-Time: no difference in the means; for MHb Production as AUC Corrected for Baseline: total methemoglobin production
# Procedure: ^a Primaquine, Comparative Compound, or Compound X, were administered
# orally by capsule for four days on days 0, 1, 2 and 3 at a dose of 3 mg/k
# primaquine base per day or the molar equivalent.
# ^e Total methemoglobin production expressed as mg of MHb/ml of
# blood/hr for a total of 2 days after administration of the first dose.
# ^f Area under the % methemoglobin versus time curve (AUC).
# methemoglobin [6] = conditions: background; cited from earlier work
# [7] = test system: Plasmodium vivax and P. ovale malaria; conditions: background; cited from earlier work
# [8] = Acute toxicity in the rat by oral or intraperitoneal administration; conditions: for LD50 (95% Confidence Limit): Rat
# P. berghei yoelli = assay: Causal prophylactic activity against sporozoite induced P. berghei yoelli in the mouse; type: in vivo; conditions: for Cures: subcutaneous
# [9] = Table 2, P. cynomolgi, Rhesus, 0.10 mg/kg × 7 of salt
# [10] = Table 2, P. cynomolgi, Rhesus, 0.316 mg/kg × 7 of salt
# [11] = Table 2, P. cynomolgi, Rhesus, 1.0 mg/kg × 7 of salt
smiles,measurement,setting,value
OC(c1cc(C(F)(F)F)nc2c(C(F)(F)F)cccc12)C1CCCCN1 (stereo not shown) [mefloquine],"curative dose, Rane Mouse Test",[1],20 mg/kg
"COc1cc(NC(C)CCCN)c2ncccc2c1 (stereo not shown) [Primaquine diphosphate, 8-(4-amino-1-methylbutylamino)-6-methoxyquinoline]",minimal effective dose,"[2]; Plasmodium berghei, in Mus musculus, Table 4, read-out: active dose (active only at)",160 mg/kg
same,suppressive activity in words,[2]; Rane mouse test,very weak activity at non-toxic dose levels
same,ΔMST,"[2]; Table 1, P. berghei, Rane Mouse Test, 160 mg/kg",9 days
same,Toxic death (T),[2]; Table 1,2/5
same,ΔMST,"[2]; Table 4, 160 mg/kg",9 days
same,curative activity in words,"[2]; Table 4, highest dose of 640 mg/kg",not curative even at the highest dose of 640 mg/kg
same,Toxic death (T),[2]; Table 4,2/5
same,radical curative activity in words,[3]; 0.316 mg/kg,inactive
same,Cures,[3]; 1.0 mg/kg,50%
same,Cures,[3]; 1.3 mg/kg,100%
same,monkeys cured,"[3]; 1.3 mg/kg of salt per day for 7 days (1.0 mg/kg free base), in combination with chloroquine",over 90%
same,"Radical Curative Activity, Cures (C)","[3]; P. cynomolgi, 0.316 mg/kg (× 7)",0/2
same,"Radical Curative Activity, Cures (C)","[3]; P. cynomolgi, 1.0 mg/kg (× 7)",1/2
same,"Radical Curative Activity, Cures (C)","[3]; P. cynomolgi, 1.3 mg/kg (× 7)",6/6
same,Cures,[3]; [9],0/2
same,Cures,[3]; [10],0/2
same,Cures,[3]; [11],1/2
same,Cures,"[3]; Table 2, P. cynomolgi, Rhesus, 1.3 mg/kg × 7 of salt",6/6
same,Cures,[4]; 3.3 mg/kg × 3 of base,0/10
same,Cures,[4]; 13.3 mg/kg × 3 of base,3/8
same,Cures,[4]; 26 mg/kg × 3 of base,5/6
same,Peak % MHb,methemoglobin [5],6.27 ± 3.86%
same,Slope of MHb Formation,methemoglobin [5],0.93 ± 0.61
same,Time of Peak MHb,methemoglobin [5],3.92 ± 0.34 days
same,MHb Disappearance Half-Time,methemoglobin [5],7.89 ± 3.30 days
same,MHb Production as AUC Corrected for Baseline,methemoglobin [5],"2,138 ± 1,484 mg of MHb/ml of blood/hr"
same,methemoglobin formation in words,methemoglobin [6],cause methemoglobinemia; also recorded: Methemoglobin formation is induced
same,"toxicity in man, in words",[7],the toxicity of primaquine precludes administration of a single curative dose
same,LD50 (95% Confidence Limit),"[8]; female, oral",244 (193-260) mg/kg (Salt)
"COc1cc(C)c2c(Oc3cccc(C(F)(F)F)c3)c(OC)cc(NC(C)CCCN)c2n1.O=C(O)CCC(=O)O (stereo not shown) [Compound X, 8-(4-Amino-1-methylbutylamino)-2,6-dimethoxy-4-methyl-5-(3-trifluoromethylphenoxy)quinoline Succinate]","blood schizonticidal activity in the mouse, in words",[2]; Table 4,blood schizonticidal activity in the mouse similar to the Comparative Compound
same,ΔMST,"[2]; Table 4, 5 mg/kg",4 days
same,ΔMST,"[2]; Table 4, 10 mg/kg",6 days
same,ΔMST,"[2]; Table 4, 20 mg/kg",9 days
same,Cures,"[3]; Table 2, P. cynomolgi, Rhesus, 0.0316 mg/kg × 7 of salt",0/2
same,Cures,[3]; [9],2/4
same,Cures,[3]; [10],4/4
same,Cures,[3]; [11],2/2
same,Molar Primaquine Index by Regression Analysis,"[3]; Table 2, ratio of molar ED50, relative to primaquine",12.8
same,Cures (C),"[3]; P. cynomolgi, 0.0316 mg/kg (×7)",0/2
same,Cures (C),"[3]; P. cynomolgi, 0.1 mg/kg (×7)",2/4
same,Cures (C),"[3]; P. cynomolgi, 0.316 mg/kg (×7)",4/4
same,Cures (C),"[3]; P. cynomolgi, 1.0 mg/kg (×7)",2/2
same,"potency relative to primaquine diphosphate, molar basis","[3]; calculated by regression analysis, P. cynomolgi, Rhesus",12.8 times
same,potency relative to Comparative Compound,"[3]; radical curative, P. cynomolgi, Rhesus",approximately two
same,Cures,[4]; 1 mg/kg × 3 of base,2/2
same,Cures,[4]; 4 mg/kg × 3 of base,4/4
same,Cures,[4]; 16 mg/kg × 3 of base,3/3
same,Cures,[4]; 32 mg/kg × 3 of base,1/1
same,blood schizonticidal activity in words,"[4]; Table 3, Succinate",much greater blood schizonticidal activity than primaquine; also recorded: slightly better activity than the Comparative Compound
same,Cures,P. berghei yoelli; 2.5 mg/kg of salt,0/5
same,Cures,P. berghei yoelli; 10 mg/kg of salt,4/10
same,Cures,P. berghei yoelli; 40 mg/kg of salt,9/10
same,Cures,P. berghei yoelli; 160 mg/kg of salt,5/5
same,prophylactic activity in words,"P. berghei yoelli; Table 5, Succinate",showed prophylactic activity; also recorded: slightly less than that observed with the Comparative Compound
same,"total methemoglobin formation (area under the curve), less than Comparative Compound","methemoglobin [5]; Table 7, 46% less",46%
same,methemoglobin-forming property in words,"methemoglobin [5]; Table 7, Succinate",significantly less toxic in terms of methemoglobinemia
same,peak level of methemoglobin,"methemoglobin [5]; Table 7, equimolar doses",16%
same,methemoglobin-forming property in words,"methemoglobin [5]; Table 7, listed as Compound X succinate, Succinate",much less potent methemoglobin-forming compound than the Comparative Compound
same,"MHb Disappearance Half-Time, individual dogs","methemoglobin [5]; footnote h, data of single dogs of the group, Succinate",5.08 days and 7.71 days and 23.30 days
same,Peak % MHb,methemoglobin [5],16.0 ± 7.72%
same,Slope of MHb Formation,methemoglobin [5],0.61 ± 0.10
same,Time of Peak MHb,methemoglobin [5],6.83 ± 0.72 days
same,MHb Disappearance Half-Time,methemoglobin [5],12.03 ± 9.85 days
same,MHb Production as AUC Corrected for Baseline,methemoglobin [5],"7,887 ± 3,609 mg of MHb/ml of blood/hr"
same,LD50 (95% Confidence Limit),"[8]; female, I.P.",71 (14-114) mg/kg (Salt)
same,LD50 (95% Confidence Limit),"[8]; female, oral",416 (376-449) mg/kg (Salt)
same,LD50 (95% Confidence Limit),"[8]; male, I.P.",102 (25-164) mg/kg (Salt)
same,LD50 (95% Confidence Limit),"[8]; male, oral",429 (320-515) mg/kg (Salt)
same,acute toxicity in words,"[8]; Table 6, orally or intraperitoneally",less toxic than primaquine or the Comparative Compound
